Source: US10307409B2, “Muscarinic combinations and their use for combating hypocholinergic disorders of the central nervous system” (Chase Pharmaceuticals Corporation, priority 2015, dated 2019)

Experiments:
primate = primate study, domperidone administered with BuTAC; cited from earlier work
[1] = clinical trials, Alzheimer disease; cited from earlier work
Male Swiss mice [2] = test: T-maze continuous alternation task (T-CAT) with oxybutynin and xanomeline; format: in vivo; conditions: i.p. oxybutynin pretreatment 30 min before xanomeline
Description: The T-maze continuous alternation task (T-CAT) is useful as model for studying compounds with cognitive enhancing properties. The T-maze consists of 2 choice arms and 1 start arm mounted to a square center. Manual doors are provided to close specific arms during the force choice alternation task.
Male Swiss mice (4-6 weeks old), N=10 per treatment group were used, and were pretreated with: • Oxybutynin at the dose that blocked fecal pellet excretion in Study 2 of Example 1.
Mice were randomly assigned to one of the different experimental treatment groups. Each animal was identified by its group name, cage number, series (day) of experiment, and number (1 to 10) written with permanent ink on the tail.
The T-maze apparatus is made of gray Plexiglas with a main stem (55 cm long×10 cm wide×20 cm high) and two arms (30 cm long×10 cm wide×20 cm high) positioned at 90 degree angle relative to the main stem. A start box (15 cm long×10 cm wide) is separated from the main stem by a guillotine door. […]
The percentage of alternation over the 14 free-choice trials was determined for each mouse and was used as an index of working memory performance. […]
Analysis of variance (ANOVA) was performed on the results. […] The drug-induced improvement of memory was calculated by setting the respective response of the saline/vehicle as 100% and that of the test group as 0% reversion. […]

Male Swiss mice [3] = test: Antagonism of xanomeline-induced diarrhea in mice by oxybutynin (fecal pellet count); format: in vivo; conditions: i.p. oxybutynin 0.3 to 30 mg/kg, 30 min before xanomeline 30 mg/kg
Experimental: Male Swiss mice (4-6 weeks old), N=10 per treatment group were used. Animals were pretreated with i.p. oxybutynin (a representative peripheral muscarinic receptor antagonist) or vehicle; 30 minutes later animals were treated with xanomeline at a dose of 30 mg/kg that caused diarrhea (as determined in Experiment 1). The dose of oxybutynin ordinarily ranged from 0.3 to 30 mg/kg.
Mice were placed individually in cages without any bedding materials. During the experiment the number of fecal pellets was counted at different time-points as outlined below: • T−1 h to T0: counting of the accumulated fecal pellets excreted. • T0: administration of oxybutinin. • T30 min: administration of vehicle or xanomeline. • T 30 min to T 2.5 h: counting of accumulated fecal pellets excreted. • T+2.5 h to T+4.5 h: counting of accumulated fecal pellets excreted.
(§1) The total number of fecal pellets for each mouse was counted over time. An analysis of variance (ANOVA) was performed on the results. Fisher's Protected Least Significant Difference was used for pairwise comparisons. The p value ≤0.05 were considered significant. Grubbs' test (http//www atgraphpad.com/quickcalcs/Grubbs1.cfm) was used to detect outliers for each parameter in each experimental group.

[4] = transdermal [14C]oxybutynin, rats; cited from earlier work
Male Swiss mice [5] = test: Dose-response to xanomeline in a mouse model of diarrhea (fecal pellet count); format: in vivo; conditions: xanomeline i.p. 0.3 to 30 mg/kg
Description: Male Swiss mice (4-6 weeks old), N=10 per treatment group were used, and treated intra-peritoneally (i.p.) with either vehicle (vehicle group) or increasing doses of xanomeline, a representative muscarinic agonist. Mice were randomly assigned to one of two experimental groups (vehicle; or increasing doses of xanomeline). Each animal was identified by its group name, cage number, series (day) of experiment, and number (1 to 10) written with permanent ink on the tail.
Mice were placed individually in cages without any bedding materials. During the experiment the number of fecal pellets were counted at different time-points, starting one hour before the time of the administration of the test compound (T0), as outlined below: • T−1 h to T0: counting of the accumulated fecal pellets excreted. • T0: administration of the test compound, • T0 to T+2 h: counting of the accumulated fecal pellets excreted. • T+2 h to T+4 h: counting of the accumulated fecal pellets excreted.
as §1, with “comparisons;” for “comparisons. The”, “values” for “value”, “(http://www.graphpad.com/quickcs/Grubbs1.cfm)” for “(http//www atgraphpad.com/quickcalcs/Grubbs1.cfm)”

[6] = tested on: patients with Alzheimer disease; test: Xanomeline 6-month double-blind, placebo-controlled, parallel group trial in Alzheimer disease patients; format: in vivo, human; conditions: in view of Mirza 2003; i.e. 225 mg/day
Description: A close analog of tazomeline, the 3-(4-hexyloxy-1,2,5-thiadiazol-3-yl)-1-methyl-5,6-dihydro-2H-pyridine known as xanomeline and described in U.S. Pat. No. 5,043,345, the disclosure of which is incorporated herein by reference in its entirety, has been disclosed as a muscarinic acetylcholine receptor agonist with reasonable selectivity for the M1 and M4 subtypes. The efficacy of xanomeline, which stimulates muscarinic receptors in the brain and in the periphery was studied in patients with Alzheimer disease in a 6-month double-blind, placebo-controlled, parallel group trial. […] Such side effects prevented the use of doses of xanomeline that could achieve maximum anti-dementia efficacy and reflect stimulation of cholinergic receptors outside the brain.
Dose-limiting adverse events attending the use of drugs that stimulate cholinergic transmission, such as xanomeline, appear to primarily reflect the excessive stimulation of peripheral cholinergic receptors, especially those of the muscarinic type (mAChRs), such that in both healthy volunteers and Alzheimer's patients many of these side effects have been reported for xanomeline; in the patient population this led to a discontinuation rate higher than 50% while the effects on cognition were not robust and mainly seen at the highest doses tested (Mirza2003).

[7] = clinical study, Sramek 1995; cited from earlier work
[8] = tested on: patients with Alzheimer disease; conditions: cited from earlier work

O=c1[nH]c2ccccc2n1CCCN1CCC(n2c(=O)[nH]c3cc(Cl)ccc32)CC1 [domperidone, 5-chloro-1-(1-[3-(2-oxo-2,3-dihydro-1H-benzo[d]imidazol-1-yl)propyl]piperidin-4-yl)-1H-benzo[d]imidazol-2(3H)-one]
effect on BuTAC-induced vomiting (primate): mitigated

CO/N=C/C1=CCCN(C)C1 [milameline, (E)-N-methoxy-1-(1-methyl-1,2,5,6-tetrahydropyridin-3-yl)methanimine]
maximum tolerated dose [1]: 2 mg four times per day

CCN(CC)CC#CCOC(=O)C(O)(c1ccccc1)C1CCCCC1 (stereo not drawn) [oxybutynin, 4-diethylaminobut-2-ynyl 2-cyclohexyl-2-hydroxy-2-phenylethanoate]
ability to perform the T-maze test after oxybutynin pretreatment (Male Swiss mice [2]): restored the animals' ability to perform the T-maze test
antagonism of xanomeline-induced diarrhea (Male Swiss mice [3]): dose-dependently antagonized the diarrhea induced by xanomeline
brain penetration of radiolabel [4]: presence of radiolabel in the brain

CCCCCCOc1nsnc1C1=CCCN(C)C1 [xanomeline, 3-(4-hexyloxy-1,2,5-thiadiazol-3-yl)-1-methyl-5,6-dihydro-2H-pyridine]
diarrhea (fecal pellets excreted) (Male Swiss mice [5]): dose-dependently causes diarrhea
maximum tolerated dose as considered in the context of the present invention [6]: 75 mg three times per day
MTD [7]: 100 mg three times a day
patients who discontinued treatment ([8]; 75 mg xanomeline orally three times daily, 6-month study, mainly adverse events, predominantly gastrointestinal): 59%
cognitive and behavioral symptoms of Alzheimer disease compared to placebo ([8]; 6-month trial (Bodick 1997; Shekhar 2008)): significantly improve cognitive and behavioral symptoms
side effects (bradycardia, gastro-intestinal distress, excessive salivation, sweating) ([8]; 6-month trial): dose-dependent unacceptable side effects
discontinuation rate in the patient population ([8]; Alzheimer's patients (Mirza 2003)): higher than 50%
